According to US20190038209A1, “Using Spectral CT to Diagnose Thyroid Nodules” (BOARD OF REGENTS, THE UNIVERSITY OF TEXAS SYSTEM, priority 2016, published 2019):

Assay: Spectral CT iodine-no-water map of rat thyroid before and after oral potassium iodide
Type: in vivo
Conditions: Fischer rats, 654 mg potassium iodide (500 mg iodine) oral gavage, 10 hours of uptake; baseline 1.5 mg I/mL
Protocol: Next, a Philips IQon Spectral CT scanner was used to obtain in vivo animal data. Three healthy female Fischer rats ranging from 150 g to 250 g mass were each anesthetized using 2.5% isoflurane and scanned in a supine position using the highest resolution settings for the IQon Spectral CT clinical scanner (0.625 mm slice thickness with 0.20 mm in-plane pixel resolution). The baseline endogenous iodine levels within the rat thyroid were measured using the iodine-no-water map and averaged 1.5 mg I/mL. These levels are similar to the baseline endogenous iodine levels found within healthy human thyroid tissue. The rats were then each given a bolus dose of 654 mg of potassium iodide (equivalent to 500 mg of iodine) that was dissolved in 1 mL of water and administered orally using a gavage. After 10 hours of uptake the rats were again anesthetized with 2.5% isoflurane and scanned a second time on the IQon Spectral CT using the same settings as before. The iodine levels within the rat thyroid now averaged 3.0 mg I/mL, or a 100% increase in iodine. […] Generally, a 500 mg dose of oral iodine given to humans can increase the level of organified iodine in the thyroid tissue (after a full 24 hours of uptake) from 1.5 mg I/mL to 5-10 mg I/ml depending on total thyroid volume. […]

[I-].[K+] [potassium iodide]
iodine levels within the rat thyroid (average): 3.0 mg I/mL
